Measurements published in US20100173890A1, “Compounds, Process for their Preparation, Intermediates, Pharmaceutical Compositions and their use in the Treatment of 5-HT6 Mediated Disorders such as Alzheimer's Disease, Cognitive Disorders, Cognitive Impairment Associated with Schizophrenia, Obesity and Parkinson's Disease” (AstraZeneca AB, priority 2005, published 2010).

Target: T1, Rat Striatal 5-HT6 Receptors (Rattus norvegicus, UniProt P31388)
T1 construct: Striatal tissue from adult rats (Sprague-Dawley, 320-370 g, B & K Sweden) were dissected out, weighed and homogenized; from tissue; host or cells: rat striatum (Sprague-Dawley) membranes
T1 sequence (P31388 whole entry): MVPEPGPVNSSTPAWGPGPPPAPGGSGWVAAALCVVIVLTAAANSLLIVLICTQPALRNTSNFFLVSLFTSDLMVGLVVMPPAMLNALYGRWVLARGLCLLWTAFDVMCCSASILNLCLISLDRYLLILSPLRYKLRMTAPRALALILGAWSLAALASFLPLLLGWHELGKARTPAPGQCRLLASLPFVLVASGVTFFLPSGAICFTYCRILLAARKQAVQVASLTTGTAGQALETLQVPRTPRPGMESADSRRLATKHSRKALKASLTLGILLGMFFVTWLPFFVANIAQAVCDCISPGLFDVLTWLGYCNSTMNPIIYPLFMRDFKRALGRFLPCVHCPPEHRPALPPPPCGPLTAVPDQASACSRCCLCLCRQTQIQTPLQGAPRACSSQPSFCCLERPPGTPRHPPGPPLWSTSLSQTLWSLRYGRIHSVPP
Assay: [125I]SB258585 binding to rat striatal 5-HT6 receptors
Settings: competition with 0.5-1 nM [125I]SB258585, rat striatal membranes
Description: Method for [125I]SB258585 Binding to Rat Striatal 5-HT6 Receptors
[^125I]SB258585 (1) with specific radioactivity 2000 Ci/mmol was purchased from Amersham Biosciences Europe GmbH, Freiburg, Germany. Other chemicals were is purchased from commercial sources and were of analytical grade.
Striatal tissue from adult rats (Sprague-Dawley, 320-370 g, B & K Sweden) were dissected out, weighed and homogenized in buffer containing 50 mM Tris-HCl, 4 mM MgCl2, 1 mM EDTA, 10 μM pargyline and protease inhibitor (Complete, Roche Diagnostics) pH 7.4 using an Ultra-Turrax T8 (IKA Labortechnik, Germany). The tissue homogenate was centrifuged at 48 000×g for 10 min and the pellet was resuspended and recentrifuged as above. […]
Saturation binding studies were carried out in duplicate with 1-3 mg w.w. per tube in 0.5 ml buffer (50 mM Tris, 4 mM MgCl2, 100 mM NaCl, 1 mM EDTA, 5 mM ascorbate and 10 μM pargyline at pH 7.4), 0.2 nM [^125I]SB258585 and unlabelled SB258585 to give a final concentration range of 0.23-20 nM (12 conc.). Non-specific binding was determined in the presence of 10 μM methiothepin. […] The radioactivity was determined in a Packard Tri-Carb 2900TR liquid scintillation counter: Data were analyzed by non-linear regression analyses using PRISM 4.00 (GraphPad Software Inc., San Diego, Calif.). […]

Ki: 82 ± 28 nM
Compound: O=S(=O)(Nc1cccc(Cl)c1)c1ccc2c(c1)CNCCO2 [Example 3, N-(3-Chlorophenyl)-2,3,4,5-tetrahydro-1,4-benzoxazepine-7-sulfonamide]
